Test results reported in publication PMC8045554 (Pharmacological research, 2020).

Biological target: PCSK9 (proprotein convertase subtilisin/kexin type-9) (Homo sapiens, UniProt Q8NBP7)
Experiment: SPR with immobilized PCSK9
Assay type: binding

CC/C=C\[C@H](O)[C@H](O)C1=C(C)C(=O)[C@]2(O1)C(=O)N[C@@](OC)(C(=O)c1ccccc1)[C@@H]2O [PS, Pseurotin A]
Kd: 23.4 µM
